Structures are written as SMILES.

By EC50 is commonly meant the concentration giving half of the maximal effect. A higher EC50 goes with a need for much substance.

The target in this test is T1, GCase (Homo sapiens, UniProt P04062).
T1 construct: endogenous in cells; host or cells: HeLa cells
T1 sequence (P04062 40-536): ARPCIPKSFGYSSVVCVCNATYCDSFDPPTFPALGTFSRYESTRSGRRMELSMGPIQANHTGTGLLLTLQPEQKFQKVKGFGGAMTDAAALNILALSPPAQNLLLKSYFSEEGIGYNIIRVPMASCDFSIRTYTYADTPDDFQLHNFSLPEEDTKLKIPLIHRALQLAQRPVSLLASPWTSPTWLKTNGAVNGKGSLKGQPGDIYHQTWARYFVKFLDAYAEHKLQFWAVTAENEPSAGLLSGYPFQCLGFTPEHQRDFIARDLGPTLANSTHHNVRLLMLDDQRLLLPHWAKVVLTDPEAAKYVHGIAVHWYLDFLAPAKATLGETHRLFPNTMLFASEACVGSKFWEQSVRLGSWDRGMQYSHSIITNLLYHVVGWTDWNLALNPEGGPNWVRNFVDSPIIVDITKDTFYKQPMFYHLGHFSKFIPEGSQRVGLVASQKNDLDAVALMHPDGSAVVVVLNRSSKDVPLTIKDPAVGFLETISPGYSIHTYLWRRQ
The experiment in a line: activation of GCase in a live cell PFB assay in HELA cells. Format: cell-based. The settings on record: activation of GCase, EC50 ranges. The method, then: Exemplary compounds were evaluated for activation of GCase in a live cell PFB assay in HELA cells (essentially as described in Ysselstein et al., “LRRK2 kinase activity regulates lysosomal glucocerebrosidase in neurons derived from Parkinson's disease patients” Nature Communications (2019) 10:5570). […] EC50 ranges: A: <10 μM; B: >10-50 μM; C: >50-100 μM; D: >100 μM.
Molecule `Fc1ccc(F)c(OC2CC3(CCCN(c4cnc5cnn(CC(F)F)c5n4)C3)C2)c1` (stereo not shown) [Compound 24, 6-[1-(2,2-difluoroethyl)-1H-pyrazolo[3,4-b]pyrazin-6-yl]-2-(2,5-difluorophenoxy)-6-azaspiro[3.5]nonane] displayed an EC50 of 10 to 50 µM.

`FC(F)Cn1ncc2ncc(N3CC4(CCCN(c5cccc(C(F)(F)F)n5)C4)C3)nc21` [Compound 25, 2-[1-(2,2-difluoroethyl)-1H-pyrazolo[3,4-b]pyrazin-6-yl]-6-[6-(trifluoromethyl)pyridin-2-yl]-2,6-diazaspiro[3.5]nonane] yielded an EC50 of 10 to 50 µM. `FC(F)Cn1ncc2ncc(N3CCCC4(C3)CN(c3cccnc3C(F)(F)F)C4)nc21` [Compound 26, 6-[1-(2,2-difluoroethyl)-1H-pyrazolo[3,4-b]pyrazin-6-yl]-2-[2-(trifluoromethyl)pyridin-3-yl]-2,6-diazaspiro[3.5]nonane] had an EC50 of 10 to 50 µM. `FC(F)Cn1ncc2ncc(N3CCCC4(CC(Oc5cccc(C(F)(F)F)n5)C4)C3)nc21` (stereo not shown) [Compound 27, 6-[1-(2,2-difluoroethyl)-1H-pyrazolo[3,4-b]pyrazin-6-yl]-2-{[6-(trifluoromethyl)pyridin-2-yl]oxy}-6-azaspiro[3.5]nonane]: the EC50 fell in the range of 10 to 50 µM. `FC(F)Cn1ncc2ncc(N3CCCC4(CC(Oc5ccc(C(F)(F)F)cn5)C4)C3)nc21` (stereo not shown) [Compound 28, 6-[1-(2,2-difluoroethyl)-1H-pyrazolo[3,4-b]pyrazin-6-yl]-2-{[5-(trifluoromethyl)pyridin-2-yl]oxy}-6-azaspiro[3.5]nonane] gave a half-maximal effective concentration (EC50) of 10 to 50 µM. With `FC(F)Cn1ncc2ncc(N3CCCC4(CC(Oc5cc(C(F)(F)F)ccn5)C4)C3)nc21` (stereo not shown) [Compound 29, 6-[1-(2,2-difluoroethyl)-1H-pyrazolo[3,4-b]pyrazin-6-yl]-2-{[4-(trifluoromethyl)pyridin-2-yl]oxy}-6-azaspiro[3.5]nonane] the figure was 10 to 50 µM; with `Fc1ccc(F)c(OC2CC3(CCCN(c4cnc5cnn(CC(F)(F)F)c5n4)C3)C2)c1` (stereo not shown) [Compound 30, 2-(2,5-difluorophenoxy)-6-[1-(2,2,2-trifluoroethyl)-1H-pyrazolo[3,4-b]pyrazin-6-yl]-6-azaspiro[3.5]nonane], 10 to 50 µM; with `Fc1cc(F)cc(OC2CC3(CCCN(c4cnc5cnn(CC(F)F)c5n4)C3)C2)c1` (stereo not shown) [Compound 31, 6-[1-(2,2-difluoroethyl)-1H-pyrazolo[3,4-b]pyrazin-6-yl]-2-(3,5-difluorophenoxy)-6-azaspiro[3.5]nonane], 10 to 50 µM. `FC(F)Cn1ncc2ncc(N3CCCC4(CC(Oc5ncccc5C(F)(F)F)C4)C3)nc21` (stereo not shown) [Compound 32, 6-[1-(2,2-difluoroethyl)-1H-pyrazolo[3,4-b]pyrazin-6-yl]-2-{[3-(trifluoromethyl)pyridin-2-yl]oxy}-6-azaspiro[3.5]nonane] returned an EC50 of 10 to 50 µM. Consider `Fc1cc(F)cc(OC2CC3(CCCN(c4cnc5cnn(CC(F)(F)F)c5n4)C3)C2)c1` (stereo not shown) [Compound 33, 2-(3,5-difluorophenoxy)-6-[1-(2,2,2-trifluoroethyl)-1H-pyrazolo[3,4-b]pyrazin-6-yl]-6-azaspiro[3.5]nonane], for which the EC50 fell in the range of 10 to 50 µM. In turn, `FC(F)Cn1ncc2ncc(N3CCCC4(CCN(c5cccc(C(F)(F)F)n5)C4)C3)nc21` (stereo not shown) [Compound 34, 7-[1-(2,2-difluoroethyl)-1H-pyrazolo[3,4-b]pyrazin-6-yl]-2-[6-(trifluoromethyl)pyridin-2-yl]-2,7-diazaspiro[4.5]decane] showed an EC50 of 10 to 50 µM. The molecule `FC(F)Cn1ncc2ncc(N3CCCC4(C3)CN(c3ccncc3C(F)(F)F)C4)nc21` [Compound 35, 6-[1-(2,2-difluoroethyl)-1H-pyrazolo[3,4-b]pyrazin-6-yl]-2-[3-(trifluoromethyl)pyridin-4-yl]-2,6-diazaspiro[3.5]nonane] registered an EC50 of 10 to 50 µM. In the case of `FC(F)Cn1ncc2ncc(N3CCC4(CCCN(c5cccc(C(F)(F)F)n5)C4)C3)nc21` (stereo not shown) [Compound 36, 2-[1-(2,2-difluoroethyl)-1H-pyrazolo[3,4-b]pyrazin-6-yl]-7-[6-(trifluoromethyl)pyridin-2-yl]-2,7-diazaspiro[4.5]decane], the EC50 lay within 10 to 50 µM. Take `FC(F)Cn1ncc2ncc(N3CCCC4(CN(c5ccc(C(F)(F)F)nc5)C4)C3)nc21` [Compound 37, 6-[1-(2,2-difluoroethyl)-1H-pyrazolo[3,4-b]pyrazin-6-yl]-2-[6-(trifluoromethyl)pyridin-3-yl]-2,6-diazaspiro[3.5]nonane]: the EC50 lay within 10 to 50 µM.

Consider `FC(F)Cn1ncc2ncc(N3CCCC4(CN(c5cc(C(F)(F)F)ccn5)C4)C3)nc21` [Compound 38, 6-[1-(2,2-difluoroethyl)-1H-pyrazolo[3,4-b]pyrazin-6-yl]-2-[4-(trifluoromethyl)pyridin-2-yl]-2,6-diazaspiro[3.5]nonane], for which the concentration for a half-maximal effect (EC50) was in the range of 10 to 50 µM. With `FC(F)Cn1ncc2ncc(N3CC4(CCCN(c5ncccc5C(F)(F)F)C4)C3)nc21` [Compound 39, 2-[1-(2,2-difluoroethyl)-1H-pyrazolo[3,4-b]pyrazin-6-yl]-6-[3-(trifluoromethyl)pyridin-2-yl]-2,6-diazaspiro[3.5]nonane], the EC50 is 50 to 100 µM. The molecule `O=C(c1ccc2cc[nH]c2c1)N1CCCC2(CC(Oc3cnccc3C(F)(F)F)C2)C1` (stereo not shown) [Compound 40, 6-(1H-indole-6-carbonyl)-2-{[4-(trifluoromethyl)pyridin-3-yl]oxy}-6-azaspiro[3.5]nonane] gave an EC50 of 50 to 100 µM.

`FC(F)Cn1ncc2ncc(N3CCCC4(CN(c5ccc(C(F)(F)F)cn5)C4)C3)nc21` [Compound 41, 6-[1-(2,2-difluoroethyl)-1H-pyrazolo[3,4-b]pyrazin-6-yl]-2-[5-(trifluoromethyl)pyridin-2-yl]-2,6-diazaspiro[3.5]nonane] showed an EC50 of 50 to 100 µM. In turn, `O=C(Cc1csc(-c2ccccc2)n1)N1CCCC2(C1)CN(c1ccccc1)C2` [Compound 57, 2-(2-phenyl-1,3-thiazol-4-yl)-1-{2-phenyl-2,6-diazaspiro[3.5]nonan-6-yl}ethan-1-one] yielded an EC50 of 10 to 50 µM. `O=C(Cc1csc(-c2ccccc2)n1)N1CC2(CCCN(c3ccccc3)C2)C1` [Compound 58, 2-(2-phenyl-1,3-thiazol-4-yl)-1-{6-phenyl-2,6-diazaspiro[3.5]nonan-2-yl}ethan-1-one] gave an EC50 of 10 to 50 µM. For the molecule `FC(F)Cn1ncc2ncc(N3CCC4(CC3)CN(c3ccc(C(F)(F)F)nc3)C4)nc21` [Compound 66, 7-[1-(2,2-difluoroethyl)-1H-pyrazolo[3,4-b]pyrazin-6-yl]-2-[6-(trifluoromethyl)pyridin-3-yl]-2,7-diazaspiro[3.5]nonane], the EC50 is < 10 µM. For the molecule `FC(F)Cn1ncc2ncc(N3CCC4(CC3)CN(c3ccnc(C(F)(F)F)c3)C4)nc21` [Compound 68, 7-[1-(2,2-difluoroethyl)-1H-pyrazolo[3,4-b]pyrazin-6-yl]-2-[2-(trifluoromethyl)pyridin-4-yl]-2,7-diazaspiro[3.5]nonane], the EC50 was < 10 µM. For `FC(F)Cn1ncc2ncc(N3CCC4(CC3)CN(c3cncc(C(F)(F)F)c3)C4)nc21` [Compound 69, 7-[1-(2,2-difluoroethyl)-1H-pyrazolo[3,4-b]pyrazin-6-yl]-2-[5-(trifluoromethyl)pyridin-3-yl]-2,7-diazaspiro[3.5]nonane], the concentration giving a half-maximal response (EC50) lay within 10 to 50 µM. With `O=C1N(c2cc(C(F)(F)F)ccn2)C(=O)C2(CCN(c3cnc4cnn(CC(F)F)c4n3)CC2)N1Cc1ccccc1` [Compound 70, 1-benzyl-8-(1-(2,2-difluoroethyl)-1H-pyrazolo[3,4-b]pyrazin-6-yl)-3-(4-(trifluoromethyl)pyridin-2-yl)-1,3,8-triazaspiro[4.5]decane-2,4-dione] the figure was < 10 µM. As to `CC1(C)C(=O)N(c2cc(C(F)(F)F)ccn2)CC12CCN(c1cnc3cnn(CC(F)F)c3n1)CC2` [Compound 73, 8-(1-(2,2-difluoroethyl)-1H-pyrazolo[3,4-b]pyrazin-6-yl)-4,4-dimethyl-2-(4-(trifluoromethyl)pyridin-2-yl)-2,8-diazaspiro[4.5]decan-3-one], the half-maximal effective concentration (EC50) is < 10 µM. `CCC1C(=O)N(c2cc(C(F)(F)F)ccn2)CC12CCN(c1cnc3cnn(CC(F)F)c3n1)CC2` (stereo not shown) [Compound 75, 8-(1-(2,2-difluoroethyl)-1H-pyrazolo[3,4-b]pyrazin-6-yl)-4-ethyl-2-(4-(trifluoromethyl)pyridin-2-yl)-2,8-diazaspiro[4.5]decan-3-one]: the EC50 was < 10 µM.

Consider `FC(F)Cn1ncc2ncc(N3CCC4(CC3)CN(c3cnccc3C(F)(F)F)C4)nc21` [Compound 76, 7-[1-(2,2-difluoroethyl)-1H-pyrazolo[3,4-b]pyrazin-6-yl]-2-[4-(trifluoromethyl)pyridin-3-yl]-2,7-diazaspiro[3.5]nonane], for which the EC50 is < 10 µM.

For `FC(F)Cn1ncc2ncc(N3CCC4(CC3)CN(c3cccc(C(F)(F)F)n3)C4)nc21` [Compound 77, 7-[1-(2,2-difluoroethyl)-1H-pyrazolo[3,4-b]pyrazin-6-yl]-2-[6-(trifluoromethyl)pyridin-2-yl]-2,7-diazaspiro[3.5]nonane], the EC50 was < 10 µM.

These data come from patent publication US20250034170A1, “SMALL MOLECULE MODULATORS OF GLUCOCEREBROSIDASE ACTIVITY AND USES THEREOF” (Vanqua Bio, Inc., priority 2021, published 2025).
